Active and inactive are the calls of the source. No rule for the calls is given here.
System: CCRIS mutagenicity, Ames/micronucleus/aberration tests
Assay: CCRIS mutagenicity studies
[1] = Test System: AMES SALMONELLA TYPHIMURIUM, Strain/Indicator: TA98, Metabolic Activation: NONE, Method: PREINCUBATION
[2] = Test System: AMES SALMONELLA TYPHIMURIUM, Strain/Indicator: TA100, Metabolic Activation: NONE, Method: PREINCUBATION
[3] = Test System: AMES SALMONELLA TYPHIMURIUM, Strain/Indicator: TA1535, Metabolic Activation: NONE, Method: PREINCUBATION

## N#CC(O)c1ccccc1 (stereo unspecified)
Test System: AMES SALMONELLA TYPHIMURIUM, Strain/Indicator: TA97, Metabolic Activation: HAMSTER, LIVER, S-9, AROCLOR 1254 (10%), Method: PREINCUBATION
  mutagenic call: inactive; negative
Test System: AMES SALMONELLA TYPHIMURIUM, Strain/Indicator: TA97, Metabolic Activation: HAMSTER, LIVER, S-9, AROCLOR 1254 (30%), Method: PREINCUBATION
  mutagenic call: inactive; negative
Test System: AMES SALMONELLA TYPHIMURIUM, Strain/Indicator: TA97, Metabolic Activation: NONE, Method: PREINCUBATION
  mutagenic call: inactive; negative
Test System: AMES SALMONELLA TYPHIMURIUM, Strain/Indicator: TA97, Metabolic Activation: RAT, LIVER, S-9, AROCLOR 1254 (10%), Method: PREINCUBATION
  mutagenic call: inactive; negative
Test System: AMES SALMONELLA TYPHIMURIUM, Strain/Indicator: TA97, Metabolic Activation: RAT, LIVER, S-9, AROCLOR 1254 (30%), Method: PREINCUBATION
  mutagenic call: inactive; negative
Test System: AMES SALMONELLA TYPHIMURIUM, Strain/Indicator: TA98, Metabolic Activation: HAMSTER, LIVER, S-9, AROCLOR 1254 (10%), Method: PREINCUBATION
  mutagenic call: inactive; negative
Test System: AMES SALMONELLA TYPHIMURIUM, Strain/Indicator: TA98, Metabolic Activation: HAMSTER, LIVER, S-9, AROCLOR 1254 (30%), Method: PREINCUBATION
  mutagenic call: inactive; negative
[1]
  mutagenic call: inactive; negative
Test System: AMES SALMONELLA TYPHIMURIUM, Strain/Indicator: TA98, Metabolic Activation: RAT, LIVER, S-9, AROCLOR 1254 (10%), Method: PREINCUBATION
  mutagenic call: inactive; negative
Test System: AMES SALMONELLA TYPHIMURIUM, Strain/Indicator: TA98, Metabolic Activation: RAT, LIVER, S-9, AROCLOR 1254 (30%), Method: PREINCUBATION
  mutagenic call: inactive; negative
Test System: AMES SALMONELLA TYPHIMURIUM, Strain/Indicator: TA100, Metabolic Activation: HAMSTER, LIVER, S-9, AROCLOR 1254 (10%), Method: PREINCUBATION
  mutagenic call: inactive; negative
Test System: AMES SALMONELLA TYPHIMURIUM, Strain/Indicator: TA100, Metabolic Activation: HAMSTER, LIVER, S-9, AROCLOR 1254 (30%), Method: PREINCUBATION
  mutagenic call: inactive; negative
[2]
  mutagenic call: inactive; negative
Test System: AMES SALMONELLA TYPHIMURIUM, Strain/Indicator: TA100, Metabolic Activation: RAT, LIVER, S-9, AROCLOR 1254 (10%), Method: PREINCUBATION
  mutagenic call: inactive; negative
Test System: AMES SALMONELLA TYPHIMURIUM, Strain/Indicator: TA100, Metabolic Activation: RAT, LIVER, S-9, AROCLOR 1254 (30%), Method: PREINCUBATION
  mutagenic call: inactive; negative
Test System: AMES SALMONELLA TYPHIMURIUM, Strain/Indicator: TA1535, Metabolic Activation: HAMSTER, LIVER, S-9, AROCLOR 1254 (10%), Method: PREINCUBATION
  mutagenic call: inactive; negative
Test System: AMES SALMONELLA TYPHIMURIUM, Strain/Indicator: TA1535, Metabolic Activation: HAMSTER, LIVER, S-9, AROCLOR 1254 (30%), Method: PREINCUBATION
  mutagenic call: inactive; negative
[3]
  mutagenic call: inactive; negative
Test System: AMES SALMONELLA TYPHIMURIUM, Strain/Indicator: TA1535, Metabolic Activation: RAT, LIVER, S-9, AROCLOR 1254 (10%), Method: PREINCUBATION
  mutagenic call: inactive; negative
Test System: AMES SALMONELLA TYPHIMURIUM, Strain/Indicator: TA1535, Metabolic Activation: RAT, LIVER, S-9, AROCLOR 1254 (30%), Method: PREINCUBATION
  mutagenic call: inactive; negative

## Nc1nc2ncc(CNc3ccc(C(=O)N[C@@H](CCC(=O)O)C(=O)O)cc3)nc2c(=O)[nH]1
Test System: AMES SALMONELLA TYPHIMURIUM, Strain/Indicator: TA97A, Metabolic Activation: NONE, Method: PREINCUBATION
  mutagenic call: inactive; negative
Test System: AMES SALMONELLA TYPHIMURIUM, Strain/Indicator: TA97A, Metabolic Activation: RAT, LIVER, S-9, AROCLOR 1254, Method: PREINCUBATION
  mutagenic call: inactive; negative
Test System: AMES SALMONELLA TYPHIMURIUM, Strain/Indicator: TA102, Metabolic Activation: NONE, Method: PREINCUBATION
  mutagenic call: inactive; negative
Test System: AMES SALMONELLA TYPHIMURIUM, Strain/Indicator: TA102, Metabolic Activation: RAT, LIVER, S-9, AROCLOR 1254, Method: PREINCUBATION
  mutagenic call: inactive; negative

## O[C@H]1C=CC2=C(c3cccc4cccc2c34)[C@@H]1O
Test System: AMES SALMONELLA TYPHIMURIUM, Strain/Indicator: TM677, Metabolic Activation: NONE, Method: PREINCUBATION
  mutagenic call: active; positive
Test System: AMES SALMONELLA TYPHIMURIUM, Strain/Indicator: TM677, Metabolic Activation: RAT, LIVER, POSTMITOCHONDRIAL SUPERNATANT, AROCLOR 1254, Method: PREINCUBATION
  mutagenic call: active; positive

## C(=C\c1ccccc1)/c1ccccc1
Test System: AMES SALMONELLA TYPHIMURIUM, Strain/Indicator: TA98, Metabolic Activation: HAMSTER, LIVER, S-9, AROCLOR 1254, Method: PREINCUBATION
  mutagenic call: inactive; negative
[1]
  mutagenic call: inactive; negative
Test System: AMES SALMONELLA TYPHIMURIUM, Strain/Indicator: TA98, Metabolic Activation: RAT, LIVER, S-9, AROCLOR 1254, Method: PREINCUBATION
  mutagenic call: inactive; negative
Test System: AMES SALMONELLA TYPHIMURIUM, Strain/Indicator: TA100, Metabolic Activation: HAMSTER, LIVER, S-9, AROCLOR 1254, Method: PREINCUBATION
  mutagenic call: inactive; negative
[2]
  mutagenic call: inactive; negative
Test System: AMES SALMONELLA TYPHIMURIUM, Strain/Indicator: TA100, Metabolic Activation: RAT, LIVER, S-9, AROCLOR 1254, Method: PREINCUBATION
  mutagenic call: inactive; negative
Test System: AMES SALMONELLA TYPHIMURIUM, Strain/Indicator: TA1535, Metabolic Activation: HAMSTER, LIVER, S-9, AROCLOR 1254, Method: PREINCUBATION
  mutagenic call: inactive; negative
[3]
  mutagenic call: inactive; negative
Test System: AMES SALMONELLA TYPHIMURIUM, Strain/Indicator: TA1535, Metabolic Activation: RAT, LIVER, S-9, AROCLOR 1254, Method: PREINCUBATION
  mutagenic call: inactive; negative
Test System: AMES SALMONELLA TYPHIMURIUM, Strain/Indicator: TA1537, Metabolic Activation: HAMSTER, LIVER, S-9, AROCLOR 1254, Method: PREINCUBATION
  mutagenic call: inactive; negative
Test System: AMES SALMONELLA TYPHIMURIUM, Strain/Indicator: TA1537, Metabolic Activation: NONE, Method: PREINCUBATION
  mutagenic call: inactive; negative
Test System: AMES SALMONELLA TYPHIMURIUM, Strain/Indicator: TA1537, Metabolic Activation: RAT, LIVER, S-9, AROCLOR 1254, Method: PREINCUBATION
  mutagenic call: inactive; negative

## O[C@H]1c2ccccc2-c2cc3c(ccc4ccccc43)nc2[C@@H]1O
Test System: AMES SALMONELLA TYPHIMURIUM, Strain/Indicator: TA98, Metabolic Activation: GUINEA PIG, LIVER, S-9, 3-METHYLCHOLANTHRENE, Method: STANDARD PLATE
  mutagenic call: inactive; negative
Test System: AMES SALMONELLA TYPHIMURIUM, Strain/Indicator: TA100, Metabolic Activation: GUINEA PIG, LIVER, S-9, 3-METHYLCHOLANTHRENE, Method: STANDARD PLATE
  mutagenic call: inactive; negative
Test System: CHINESE HAMSTER V-79, Strain/Indicator: V-79/6-THIOGUANINE, Metabolic Activation: GUINEA PIG, LIVER, S-9, 3-METHYLCHOLANTHRENE
  mutagenic call: active; positive

## O=[N+]([O-])c1cc(C(F)(F)F)cc([N+](=O)[O-])c1O
Test System: AMES SALMONELLA TYPHIMURIUM, Strain/Indicator: TA98, Metabolic Activation: NONE, Method: STANDARD PLATE
  mutagenic call: inactive; negative
Test System: AMES SALMONELLA TYPHIMURIUM, Strain/Indicator: TA98, Metabolic Activation: RAT, LIVER, S-9, AROCLOR 1254, Method: STANDARD PLATE
  mutagenic call: inactive; negative
Test System: AMES SALMONELLA TYPHIMURIUM, Strain/Indicator: TA100, Metabolic Activation: NONE, Method: STANDARD PLATE
  mutagenic call: inactive; negative
Test System: AMES SALMONELLA TYPHIMURIUM, Strain/Indicator: TA100, Metabolic Activation: RAT, LIVER, S-9, AROCLOR 1254, Method: STANDARD PLATE
  mutagenic call: inactive; negative
Test System: AMES SALMONELLA TYPHIMURIUM, Strain/Indicator: TA1535, Metabolic Activation: NONE, Method: STANDARD PLATE
  mutagenic call: inactive; negative
Test System: AMES SALMONELLA TYPHIMURIUM, Strain/Indicator: TA1535, Metabolic Activation: RAT, LIVER, S-9, AROCLOR 1254, Method: STANDARD PLATE
  mutagenic call: inactive; negative
Test System: AMES SALMONELLA TYPHIMURIUM, Strain/Indicator: TA1537, Metabolic Activation: NONE, Method: STANDARD PLATE
  mutagenic call: inactive; negative
Test System: AMES SALMONELLA TYPHIMURIUM, Strain/Indicator: TA1537, Metabolic Activation: RAT, LIVER, S-9, AROCLOR 1254, Method: STANDARD PLATE
  mutagenic call: inactive; negative
Test System: AMES SALMONELLA TYPHIMURIUM, Strain/Indicator: TA1538, Metabolic Activation: NONE, Method: STANDARD PLATE
  mutagenic call: inactive; negative
Test System: AMES SALMONELLA TYPHIMURIUM, Strain/Indicator: TA1538, Metabolic Activation: RAT, LIVER, S-9, AROCLOR 1254, Method: STANDARD PLATE
  mutagenic call: inactive; negative
